Results as given in PubChem BioAssay (NCI).
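Each compound was tested at five concentrations against cells in 96-well plates for 48 hours. GI50: concentration for 50% inhibition of growth. At the TGI there is no net growth.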

Experiments:
Assay in all cases: NCI anticancer screen, dose series, 48 h
MCF7 breast = system: MCF7 breast
NCI-H23 lung = system: NCI-H23 lung
BT-549 breast = system: BT-549 breast
DU-145 prostate = system: DU-145 prostate
UACC-62 melanoma = system: UACC-62 melanoma
TK-10 renal = system: TK-10 renal
SK-OV-3 ovarian = system: SK-OV-3 ovarian
HCC-2998 colon = system: HCC-2998 colon
HOP-62 NSCLC = system: HOP-62 NSCLC
NCI-H460 lung = system: NCI-H460 lung
PC-3 prostate = system: PC-3 prostate
HL-60(TB) leukemia = system: HL-60(TB) leukemia
LOX IMVI melanoma = system: LOX IMVI melanoma
UO-31 renal = system: UO-31 renal
KM12 colon = system: KM12 colon
RXF 393 renal = system: RXF 393 renal
MOLT-4 leukemia = system: MOLT-4 leukemia
HCT-116 colon = system: HCT-116 colon
HOP-92 NSCLC = system: HOP-92 NSCLC
HCT-15 colon = system: HCT-15 colon
SW-620 colon = system: SW-620 colon
M14 melanoma = system: M14 melanoma
A498 renal = system: A498 renal
SNB-75 CNS = system: SNB-75 CNS
OVCAR-3 ovarian = system: OVCAR-3 ovarian
HT29 colon = system: HT29 colon
MDA-MB-435 = system: MDA-MB-435
SF-268 CNS = system: SF-268 CNS
ACHN renal = system: ACHN renal
MDA-MB-231 breast = system: MDA-MB-231 breast
COLO 205 colon = system: COLO 205 colon
T-47D breast = system: T-47D breast
U251 CNS = system: U251 CNS
RPMI-8226 leukemia = system: RPMI-8226 leukemia
HS 578T breast = system: HS 578T breast
IGROV1 ovarian = system: IGROV1 ovarian
SK-MEL-2 melanoma = system: SK-MEL-2 melanoma
OVCAR-4 ovarian = system: OVCAR-4 ovarian
CAKI-1 renal = system: CAKI-1 renal
MALME-3M melanoma = system: MALME-3M melanoma
SF-539 CNS = system: SF-539 CNS
A549 NSCLC = system: A549 NSCLC
UACC-257 melanoma = system: UACC-257 melanoma
CCRF-CEM leukemia = system: CCRF-CEM leukemia
NCI-H522 lung = system: NCI-H522 lung
SF-295 CNS = system: SF-295 CNS
EKVX NSCLC = system: EKVX NSCLC
786-0 renal = system: 786-0 renal
OVCAR-8 ovarian = system: OVCAR-8 ovarian
SNB-19 CNS = system: SNB-19 CNS
SN12C renal = system: SN12C renal
SK-MEL-28 melanoma = system: SK-MEL-28 melanoma
NCI-H226 lung = system: NCI-H226 lung
NCI/ADR-RES ovarian = system: NCI/ADR-RES ovarian
OVCAR-5 ovarian = system: OVCAR-5 ovarian
K-562 leukemia = system: K-562 leukemia

## COc1ccc(-c2nc(S(=O)(=O)c3ccccc3)c(S(=O)CC(=O)N3CCC(C)CC3)o2)cc1 (configuration not stated)
MCF7 breast
  GI50: 1450 nM
  TGI: 3.44 µM
NCI-H23 lung
  GI50: 3.12 µM
  TGI: 12.1 µM
BT-549 breast
  GI50: 1730 nM
  TGI: 3.77 µM
DU-145 prostate
  GI50: 1370 nM
  TGI: 2720 nM
UACC-62 melanoma
  GI50: 1670 nM
  TGI: 3.6 µM
TK-10 renal
  GI50: 1910 nM
  TGI: 3.85 µM
SK-OV-3 ovarian
  GI50: 12.9 µM
  TGI: 26.5 µM
HCC-2998 colon
  GI50: 14 µM
  TGI: 28.8 µM
HOP-62 NSCLC
  GI50: 8.12 µM
  TGI: 21 µM
NCI-H460 lung
  GI50: 5.95 µM
  TGI: 20.6 µM
PC-3 prostate
  GI50: 3.55 µM
  TGI: 15.7 µM
HL-60(TB) leukemia
  GI50: 1610 nM
  TGI: 8.35 µM
LOX IMVI melanoma
  GI50: 1720 nM
  TGI: 3.25 µM
UO-31 renal
  GI50: 1260 nM
  TGI: 2570 nM
KM12 colon
  GI50: 4.72 µM
  TGI: 16.7 µM
RXF 393 renal
  GI50: 1680 nM
  TGI: 3.25 µM
MOLT-4 leukemia
  GI50: 2090 nM
  TGI: 5.71 µM
HCT-116 colon
  GI50: 1720 nM
  TGI: 3.2 µM
HOP-92 NSCLC
  GI50: 1620 nM
  TGI: 3.63 µM
HCT-15 colon
  GI50: 1270 nM
  TGI: 2860 nM
SW-620 colon
  GI50: 1730 nM
  TGI: 4.36 µM
M14 melanoma
  GI50: 1890 nM
  TGI: 4.21 µM
A498 renal
  GI50: 2460 nM
  TGI: 9.79 µM
SNB-75 CNS
  GI50: 4.16 µM
  TGI: 15.2 µM
OVCAR-3 ovarian
  GI50: 1330 nM
  TGI: 2740 nM
HT29 colon
  GI50: 2580 nM
  TGI: 10.1 µM
MDA-MB-435
  GI50: 2550 nM
  TGI: 6.56 µM
SF-268 CNS
  GI50: 3.78 µM
  TGI: 14.9 µM
ACHN renal
  GI50: 1680 nM
  TGI: 3.13 µM
MDA-MB-231 breast
  GI50: 1910 nM
  TGI: 4.08 µM
COLO 205 colon
  GI50: 2040 nM
  TGI: 3.86 µM
T-47D breast
  GI50: 1710 nM
  TGI: 4.09 µM
U251 CNS
  GI50: 3.06 µM
  TGI: 10.6 µM
RPMI-8226 leukemia
  GI50: 1250 nM
  TGI: 4.02 µM
HS 578T breast
  GI50: 5.86 µM
  TGI: 27 µM
IGROV1 ovarian
  GI50: 2170 nM
  TGI: 6.27 µM
SK-MEL-2 melanoma
  GI50: 3.19 µM
  TGI: 9.83 µM
OVCAR-4 ovarian
  GI50: 3.31 µM
  TGI: 13 µM
CAKI-1 renal
  GI50: 2280 nM
  TGI: 6.7 µM
MALME-3M melanoma
  GI50: 1940 nM
  TGI: 3.67 µM
SF-539 CNS
  GI50: 1800 nM
  TGI: 3.52 µM
A549 NSCLC
  GI50: 7.59 µM
  TGI: 21.1 µM
UACC-257 melanoma
  GI50: 2100 nM
  TGI: 5.05 µM
CCRF-CEM leukemia
  GI50: 2820 nM
  TGI: 8.63 µM
NCI-H522 lung
  GI50: 1440 nM
  TGI: 3.39 µM
SF-295 CNS
  GI50: 6.44 µM
  TGI: 19.4 µM
EKVX NSCLC
  GI50: 3.69 µM
  TGI: 13.7 µM
786-0 renal
  GI50: 1920 nM
  TGI: 4.05 µM
OVCAR-8 ovarian
  GI50: 2440 nM
  TGI: 6.59 µM
SNB-19 CNS
  GI50: 6.43 µM
  TGI: 19.1 µM
SN12C renal
  GI50: 1900 nM
  TGI: 3.6 µM
SK-MEL-28 melanoma
  GI50: 2150 nM
  TGI: 4.36 µM
NCI-H226 lung
  GI50: 2370 nM
  TGI: 6.25 µM
NCI/ADR-RES ovarian
  GI50: 3.1 µM
  TGI: 12 µM
OVCAR-5 ovarian
  GI50: 2990 nM
  TGI: 8.58 µM
K-562 leukemia
  GI50: 198 nM
  TGI: 3.03 µM
